From patent US20230265098A1, “ALKYNE QUINAZOLINE DERIVATIVES AS INHIBITORS OF ERBB2” (EnLiven Therapeutics, Inc., priority 2020, published 2023)

Tests used:
[1] = molecular target: T1, BaF3-EGFR-V769 D770insASV (Homo sapiens, UniProt P00533, DUP767-769, cells depend on it); assay: Cell viability assay (CellTiter Glo); assay type: cell-based, mouse; settings: 72 hours; 3000 cells per well, 96-well plates; read-out: Cell viability IC50, nM, BaF3-EGFR-V769 D770insASV
T1 construct: Ba/F3 cell lines were engineered to express human ERBB2 or EGFR kinases, rendering the cells IL-3 independent
Method in brief: (§1)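 Murine Ba/F3 cells made IL-3-independent by retroviral human EGFR or ERBB2 were seeded at 3000 or 300 cells per well and exposed to serially diluted compound (DMSO ≤0.1%) for 72 hours at 37° C, 5% CO2. CellTiter Glo luminescence was normalised to DMSO and media-only controls and fitted to a sigmoidal dose-response.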

[2] = molecular target: T2, BaF3 EGFR-D770-N771insSVD (Homo sapiens, UniProt P00533, DUP768-770, cells depend on it); assay: Cell viability assay (CellTiter Glo); assay type: cell-based, mouse; settings: 72 hours; 3000 cells per well, 96-well plates; read-out: Cell viability IC50, nM, BaF3 EGFR-D770-N771insSVD
T2 construct: Ba/F3 cell lines were engineered to express human ERBB2 or EGFR kinases, rendering the cells IL-3 independent
Method in brief: as §1

[3] = molecular target: T3, BaF3 EGFR-H773 V774insNPH (Homo sapiens, UniProt P00533, DUP771-773, cells depend on it); assay: Cell viability assay (CellTiter Glo); assay type: cell-based, mouse; settings: 72 hours; 3000 cells per well, 96-well plates; read-out: Cell viability IC50, nM, BaF3 EGFR-H773 V774insNPH
T3 construct: Ba/F3 cell lines were engineered to express human ERBB2 or EGFR kinases, rendering the cells IL-3 independent
Method in brief: as §1

[4] = molecular target: T4, phosphorylated EGFR (pEGFR) (Homo sapiens, UniProt P00533); assay: Detection of phosphorylated EGFR (pEGFR) in EGF-stimulated A431 cells (AlphaLISA); assay type: cell-based; settings: A431 cells (10% FBS), 4 hours with compound, then EGF 30 ng/mL for 10 minutes
T4 construct: endogenous in cells; host or cells: A431
T4 sequence (P00533 25-1210): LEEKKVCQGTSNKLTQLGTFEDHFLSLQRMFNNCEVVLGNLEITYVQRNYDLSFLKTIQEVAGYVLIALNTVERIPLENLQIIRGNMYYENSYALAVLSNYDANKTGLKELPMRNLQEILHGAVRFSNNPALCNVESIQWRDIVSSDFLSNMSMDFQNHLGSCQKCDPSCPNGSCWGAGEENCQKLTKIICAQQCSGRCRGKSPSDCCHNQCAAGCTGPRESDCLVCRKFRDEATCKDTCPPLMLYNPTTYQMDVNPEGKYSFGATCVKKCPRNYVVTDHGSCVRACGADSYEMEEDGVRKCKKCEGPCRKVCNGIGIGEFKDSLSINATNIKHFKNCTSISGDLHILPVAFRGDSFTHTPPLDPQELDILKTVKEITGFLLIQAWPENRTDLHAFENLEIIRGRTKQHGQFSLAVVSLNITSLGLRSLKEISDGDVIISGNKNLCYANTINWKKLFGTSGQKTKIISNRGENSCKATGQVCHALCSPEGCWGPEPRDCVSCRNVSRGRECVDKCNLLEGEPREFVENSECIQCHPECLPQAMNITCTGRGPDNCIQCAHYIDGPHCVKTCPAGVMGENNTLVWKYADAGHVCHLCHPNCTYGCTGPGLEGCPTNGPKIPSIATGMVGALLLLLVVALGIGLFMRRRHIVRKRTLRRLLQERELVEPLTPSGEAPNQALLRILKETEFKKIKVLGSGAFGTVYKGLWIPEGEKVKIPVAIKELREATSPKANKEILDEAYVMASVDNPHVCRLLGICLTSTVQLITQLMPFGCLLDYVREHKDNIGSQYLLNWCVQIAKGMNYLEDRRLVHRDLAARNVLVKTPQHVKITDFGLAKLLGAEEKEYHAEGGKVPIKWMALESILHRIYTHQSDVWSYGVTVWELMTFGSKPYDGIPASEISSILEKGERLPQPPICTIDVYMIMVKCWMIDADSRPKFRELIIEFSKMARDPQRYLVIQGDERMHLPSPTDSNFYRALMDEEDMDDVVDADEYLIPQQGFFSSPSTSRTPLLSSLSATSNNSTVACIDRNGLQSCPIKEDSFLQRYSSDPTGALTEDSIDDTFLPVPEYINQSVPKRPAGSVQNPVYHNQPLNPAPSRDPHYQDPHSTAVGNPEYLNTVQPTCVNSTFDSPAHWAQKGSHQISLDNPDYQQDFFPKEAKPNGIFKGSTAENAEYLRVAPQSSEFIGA

T3 sequence (P00533 with tags, fused parts or gaps DUP771-773): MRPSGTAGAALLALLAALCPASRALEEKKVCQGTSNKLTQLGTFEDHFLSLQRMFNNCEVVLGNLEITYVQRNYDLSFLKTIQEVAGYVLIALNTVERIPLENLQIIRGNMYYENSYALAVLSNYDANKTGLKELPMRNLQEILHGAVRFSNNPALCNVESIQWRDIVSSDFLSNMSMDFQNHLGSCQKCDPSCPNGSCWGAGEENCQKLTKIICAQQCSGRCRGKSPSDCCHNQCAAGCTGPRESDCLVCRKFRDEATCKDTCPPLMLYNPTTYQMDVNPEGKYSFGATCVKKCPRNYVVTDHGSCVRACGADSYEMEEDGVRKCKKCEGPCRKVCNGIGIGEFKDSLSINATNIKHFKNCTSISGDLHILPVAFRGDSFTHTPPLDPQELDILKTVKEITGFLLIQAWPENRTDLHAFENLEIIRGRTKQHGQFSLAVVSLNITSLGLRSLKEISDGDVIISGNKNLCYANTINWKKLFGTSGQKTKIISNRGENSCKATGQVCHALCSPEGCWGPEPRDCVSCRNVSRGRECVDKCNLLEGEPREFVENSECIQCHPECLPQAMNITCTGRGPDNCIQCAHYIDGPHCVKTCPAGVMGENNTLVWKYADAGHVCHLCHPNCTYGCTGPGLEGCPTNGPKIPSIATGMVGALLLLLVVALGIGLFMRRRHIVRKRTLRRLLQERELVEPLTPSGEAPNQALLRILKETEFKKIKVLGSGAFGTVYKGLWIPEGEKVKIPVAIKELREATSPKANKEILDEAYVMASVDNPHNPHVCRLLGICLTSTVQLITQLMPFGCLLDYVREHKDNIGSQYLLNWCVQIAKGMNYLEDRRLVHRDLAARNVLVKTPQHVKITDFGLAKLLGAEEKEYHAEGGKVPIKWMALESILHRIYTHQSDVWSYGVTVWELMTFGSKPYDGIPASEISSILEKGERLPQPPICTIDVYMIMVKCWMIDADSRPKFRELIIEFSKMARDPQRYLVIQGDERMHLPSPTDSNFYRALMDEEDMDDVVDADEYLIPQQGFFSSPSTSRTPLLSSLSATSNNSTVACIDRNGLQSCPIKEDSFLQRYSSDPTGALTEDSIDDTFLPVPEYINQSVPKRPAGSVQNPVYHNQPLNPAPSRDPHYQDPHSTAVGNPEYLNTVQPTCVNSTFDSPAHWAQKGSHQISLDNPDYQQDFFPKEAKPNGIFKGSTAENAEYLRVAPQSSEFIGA
T1 sequence (P00533 with tags, fused parts or gaps DUP767-769): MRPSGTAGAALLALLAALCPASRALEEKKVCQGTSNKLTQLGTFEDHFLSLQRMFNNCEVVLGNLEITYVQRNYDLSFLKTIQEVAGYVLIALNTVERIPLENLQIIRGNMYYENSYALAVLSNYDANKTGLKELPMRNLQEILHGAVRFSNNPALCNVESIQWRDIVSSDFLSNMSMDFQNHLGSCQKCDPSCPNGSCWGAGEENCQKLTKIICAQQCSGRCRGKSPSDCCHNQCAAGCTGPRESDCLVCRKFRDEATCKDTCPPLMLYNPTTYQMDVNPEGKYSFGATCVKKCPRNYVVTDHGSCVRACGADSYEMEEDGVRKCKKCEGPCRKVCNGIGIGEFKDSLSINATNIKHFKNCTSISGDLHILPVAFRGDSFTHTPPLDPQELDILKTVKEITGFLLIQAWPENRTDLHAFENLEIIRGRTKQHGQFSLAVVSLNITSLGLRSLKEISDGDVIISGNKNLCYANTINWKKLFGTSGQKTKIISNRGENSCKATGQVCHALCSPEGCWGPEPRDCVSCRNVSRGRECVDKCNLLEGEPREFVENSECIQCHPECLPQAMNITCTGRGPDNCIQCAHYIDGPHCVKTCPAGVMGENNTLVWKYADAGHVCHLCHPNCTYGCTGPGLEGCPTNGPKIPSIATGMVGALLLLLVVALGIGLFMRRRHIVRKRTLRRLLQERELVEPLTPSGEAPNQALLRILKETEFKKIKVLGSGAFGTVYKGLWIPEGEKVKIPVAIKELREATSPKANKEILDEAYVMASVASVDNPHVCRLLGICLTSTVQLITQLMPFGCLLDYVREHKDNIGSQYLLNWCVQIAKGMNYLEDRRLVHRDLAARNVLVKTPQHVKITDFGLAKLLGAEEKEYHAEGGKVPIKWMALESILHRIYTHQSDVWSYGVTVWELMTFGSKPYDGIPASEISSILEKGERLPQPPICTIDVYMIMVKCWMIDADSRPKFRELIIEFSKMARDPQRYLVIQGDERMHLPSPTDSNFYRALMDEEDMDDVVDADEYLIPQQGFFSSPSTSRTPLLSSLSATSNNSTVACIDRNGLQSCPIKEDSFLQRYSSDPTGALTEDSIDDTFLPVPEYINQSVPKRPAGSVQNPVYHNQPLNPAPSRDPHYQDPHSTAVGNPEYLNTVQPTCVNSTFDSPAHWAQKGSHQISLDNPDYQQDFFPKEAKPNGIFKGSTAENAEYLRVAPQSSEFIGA
T2 sequence (P00533 with tags, fused parts or gaps DUP768-770): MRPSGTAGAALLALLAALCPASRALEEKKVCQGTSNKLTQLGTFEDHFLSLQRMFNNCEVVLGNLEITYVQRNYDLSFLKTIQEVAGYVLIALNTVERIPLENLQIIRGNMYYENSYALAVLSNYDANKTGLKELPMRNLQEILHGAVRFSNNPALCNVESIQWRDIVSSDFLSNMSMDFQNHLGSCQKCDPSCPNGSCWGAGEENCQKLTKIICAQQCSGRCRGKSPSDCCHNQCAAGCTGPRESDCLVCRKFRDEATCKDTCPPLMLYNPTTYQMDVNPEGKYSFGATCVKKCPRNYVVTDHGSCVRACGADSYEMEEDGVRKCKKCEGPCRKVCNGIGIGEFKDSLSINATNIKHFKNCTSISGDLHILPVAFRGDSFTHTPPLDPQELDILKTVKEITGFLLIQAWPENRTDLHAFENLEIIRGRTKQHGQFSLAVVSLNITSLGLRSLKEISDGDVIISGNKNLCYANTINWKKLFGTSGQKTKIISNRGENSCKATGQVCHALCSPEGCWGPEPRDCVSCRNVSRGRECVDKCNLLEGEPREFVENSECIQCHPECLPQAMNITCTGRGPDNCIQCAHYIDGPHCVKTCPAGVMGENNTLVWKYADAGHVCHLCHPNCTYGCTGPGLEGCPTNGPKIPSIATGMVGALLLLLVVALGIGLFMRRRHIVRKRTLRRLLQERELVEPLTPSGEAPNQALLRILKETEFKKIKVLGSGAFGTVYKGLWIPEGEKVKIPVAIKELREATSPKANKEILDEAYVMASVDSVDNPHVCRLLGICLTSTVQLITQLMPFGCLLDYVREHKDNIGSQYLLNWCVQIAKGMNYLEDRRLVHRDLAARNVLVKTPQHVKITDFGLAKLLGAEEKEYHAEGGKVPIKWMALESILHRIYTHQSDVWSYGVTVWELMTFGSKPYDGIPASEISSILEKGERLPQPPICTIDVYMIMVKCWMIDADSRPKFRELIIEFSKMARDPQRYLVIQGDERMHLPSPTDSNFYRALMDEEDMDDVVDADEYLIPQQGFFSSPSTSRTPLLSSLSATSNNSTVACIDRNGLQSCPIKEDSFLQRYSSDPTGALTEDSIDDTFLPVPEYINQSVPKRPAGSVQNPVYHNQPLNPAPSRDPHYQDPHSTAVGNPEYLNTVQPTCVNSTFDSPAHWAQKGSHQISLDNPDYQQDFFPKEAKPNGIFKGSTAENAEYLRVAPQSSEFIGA

SMILES	GI50 [1]	GI50 [2]	GI50 [3]	IC50 [4]
CC#CC(=O)Nc1ccc2ncnc(Nc3ccc(Oc4ccn5ncnc5c4)c(C)c3)c2c1 [Compound 1, N-[4-[(3-methyl-4-[[1,2,4]triazolo[1,5-a]pyridin-7-yloxy]phenyl)amino]quinazolin-6-yl]but-2-ynamide]	861 nM	775 nM	> 1000 nM	
CC#CC(=O)Nc1cc2c(Nc3ccc(Oc4ccn5ncnc5c4)c(C)c3)ncnc2cc1OCCN(C)C [Compound 150, N-[7-[2-(dimethylamino)ethoxy]-4-[(3-methyl-4-[[1,2,4]triazolo[1,5-a]pyridin-7-yloxy]phenyl)amino]quinazolin-6-yl]but-2-ynamide]				233 nM
